Source: US9371330B2, “Substituted pyrazino[1,2-a]pyrimidines useful as CBP/catenin antagonists for enhancing asymmetric division of somatic stem cells” (University of Southern California, priority 2011, dated 2016)
Entries after “also recorded” stand apart in the source; their conditions may differ.

Key:
[1] = tested on: mitotic cells in the ventricular zone (VZ); assay: symmetric versus asymmetric divisions (Par3 distribution) in the ventricular zone of mouse embryos; format: in vivo
From the text: Taking advantage of the ready uptake and penetration through the placental barrier of applicant's small molecule Wnt modulators, applicant designed a series of experiments to investigate symmetric versus asymmetric divisions in the ventricular zone (VZ) of the brain during mouse embryonic development. Timed pregnant mice were topically treated for various time periods (1-3 days) with DMSO (vehicle control), the CBP/catenin antagonist ICG-001 or the p300/catenin antagonist IQ-1. Using a previously described protocol (56), the localization of […] (Par3) and DNA was examined in mitotic cells in the VZ. Par3 distributes symmetrically in cells that divide symmetrically and asymmetrically in cells that divide asymmetrically, whereas the DNA distributes symmetrically between the 2 cells. Using fluorescence microscopy, the percentage of mitotic cells dividing symmetrically or asymmetrically could be quantified. […] Antagonizing the CBP/catenin interaction with ICG-001 had no apparent effect yielding similarly, approximately 21% asymmetric divisions. […] Importantly, this decrease in asymmetric divisions upon treatment with IQ-1 could be rescued back essentially to control levels (i.e. ˜21%) by treatment with a 2-fold excess of ICG-001. Even further divergence in symmetric versus asymmetric divisions could be seen upon prolonged treatments. For example, treatment with IQ-1 (i.e., antagonizing p300/catenin interaction leading to increased usage of CBP) for 3 days (E13.5-16.5) decreased asymmetric divisions compared to control from 31% to 7%. […] This reporter mouse expresses EGFP, driven by the Tis21 promoter, in cells that have undergone neurogenic differentiative divisions.
For example, Bultje et al (Bultje R Neuron 63, 189-202, 2009) describe an assay to measure asymmetric distributions in the ventricular zone (vz) to evaluate asymmetric divisions during neurogenesis. Essentially this involves treating the animal (either adult or in utero) for a set period of time with compounds (either p.o., s.c., i.v. or topically) with compounds and then sacrificing the animal and examining the Par3 distribution (e.g., via immunohistochemistry) in mitotic cells vs. DNA distribution (e.g., using DAPI staining) Par3 distributes equally among the two daughter cells during symmetric division and unequally (essentially all in one daughter cell) during asymmetric differentiation.

[2] = tested on: murine embryonic stem cells (mESCs); assay: long-term culture of murine embryonic stem cells; format: cell-based, mouse; details: Wnt-dependent
From the text: (§1) IQ-1. In addition to ICG-001, a screen of a large chemical library for maintenance of pluripotency in mES cells led to the identification of another compound, termed IQ-1 (FIG. 2b). […] I-Q-1 diminishes the interaction between p300 and beta-catenin thereby increasing the CBP/beta-catenin interaction (24).

[3] = tested on: PR72/130 subunit of the serine/threonine phosphatase PP2A; assay: binding to PP2A subunit
From the text: as §1

[4] = tested on: skin injury; assay: skin injury repair in normal and hair-less mice; format: in vivo, mouse; details: 500 μM in vaseline, once a day for eight days
Method: The ability of CBP/catenin (e.g., CBP/β-catenin) antagonist to accelerate injured skin repair in normal mice models (having full hair growth and normal fur) and hair-less mice models was tested. In brief, on day 0, the animals were subjected to skin injury in two spots on the back, hind end of each animal. Each skin injury spot was treated with 500 μM of either Vaseline (petrolatum) (vehicle) or Laura-8 in vaseline once a day for eight days.

[5] = tested on: hair-less mouse model; assay: hair growth in hair-less mouse model; format: in vivo; details: vs petroleum jelly
Method: The ability of CBP/β-catenin antagonist to stimulate hair growth in a hair-less mouse model was tested. In brief, the animals were treated with either petroleum jelly or Laura-8 for 16 days. In addition, skin samples from each animal were taken and examined for hair-follicle formulation.

[6] = tested on: normal stem cell niche; assay: aging mice, long term topical administration; format: in vivo, mouse; details: 12 months (6 to 18 months of age)
From the text: Left mouse is control, whereas right mouse received CBP/catenin (e.g., CBP/β-catenin) antagonists (topical Laura-8 as disclosed herein) for 12 months (from 6 months of age to 18 months of age).

[7] = tested on: elastin; assay: ex vivo human skin assay, qRT-PCR of elastin; format: cell-based; details: 24 hrs; 5 uM ICG-001, 5 uM methylated ICG-001, 1 ug/ml RA
Method: (§2) Methods. Ex Vivo human skin assay culture conditions were based upon a paper by Varani J et al Experimental and Molecular Pathology, 2004.
(§3) Briefly, human skin (surgical waste from plastic surgery procedures) was obtained and the subcutaneous layer of fat was trimmed manually with a scalpel. The skin was then cut into small fragments about 2 mm square and placed in 6 well plates. 1 ml of keratinocyte culture medium (Gibco 10724-011) with 1% P/S (penstrep antibiotic) was added to each well. The epidermis, bathed in media was placed facing up. On the next day (overnight culture in the media above), the skin fragments were transferred to fresh wells that contained either 5 uM ICG-001, 5-uM methylated ICG-001 or 1 ug/ml of retinoic acid (RA). After 24 hrs, skin samples in culture were removed for RNA isolation and qRT-PCR analysis of genes of interest (e.g. elastin (a gene involved in skin appearance and pliability (e.g., wrinkling) and aquaporin 1, which is involved with hydration.

[8] = tested on: aquaporin 1; assay: ex vivo human skin assay, qRT-PCR of aquaporin 1; format: cell-based; details: 24 hrs; 5 uM ICG-001, 5 uM methylated ICG-001, 1 ug/ml RA
Method: as §2, §3

SMILES: CC(=O)c1ccc(N=NC(C(N)=O)=C2NC(C)(C)Cc3ccccc32)cc1 [IQ-1]
- asymmetric divisions in the VZ ([1]; 3 days (E13.5-16.5)): 7%
- effect on number of asymmetric divisions ([1]; topical or oral administration to pregnant mice): decreases the number of asymmetric divisions
- asymmetric divisions in the VZ ([1]; topical to timed pregnant mice, 1 day (E13.5 to 14.5)): approximately 9%
- maintenance of pluripotency [2]: maintains the pluripotency
- binding to PR72/130 [3]: binds to the PR72/130 subunit of the serine/threonine phosphatase PP2A

SMILES: CCCCCCCCCCCC(=O)Oc1ccc(C[C@H]2C(=O)N(Cc3cccc4ccccc34)C[C@@H]3N(C(=O)NCc4ccccc4)CCC(=O)N32)cc1 [Laura-8]
- skin healing [4]: significantly accelerated skin healing process
- hair growth ([5]; 16 days): significant hair growth
- new hair-follicle formation (skin pathology) [5]: new hair-follicles were formed; also recorded: substantial new hair-follicle formation
- depletion of the normal stem cell niche [6]: does not deplete the normal stem cell niche

SMILES: C[C@H]1C2N(C(=O)NCc3ccccc3)CCC(=O)N2[C@@H](Cc2ccc(O)cc2)C(=O)N1Cc1cccc2ccccc12 (stereo partly drawn) [Me-ICG-001, (6S,9S)—N-benzyl-6-(4-hydroxybenzyl)-9-methyl-8-(naphthalen-1-ylmethyl)-4,7-dioxooctahydro-1H-pyrazino[1,2-a]pyrimidine-1-carboxamide]
- expression of elastin [7]: larger increase
- expression of aquaporin 1 [8]: larger increase
